Where two headings read alike, the source gives them in different places.
Legend:
[1] = target: T1, BRD4 Bromodomain 1 (BRD4 BD1) (Homo sapiens, UniProt O60885); assay: AlphaScreen binding assay, BRD4 BD1; details: His-tagged BRD4 BD1 50 nM, biotinylated H4 (1-21) K5/8/12/16 tetra-acetylated peptide 50 nM, compounds listed under IC50 range headings
T1 construct: 44-168 and BRD4 BD2
Method in brief: (§1)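 Compound dilution series were mixed with His-tagged BRD4 bromodomain and biotinylated tetra-acetylated H4 (1-21) peptide at pH 7.3 (BD1 and peptide at 50 nM, BD2 and peptide at 100 nM). Donor and acceptor beads were then added, and plates were equilibrated at least 1 h before reading. IC50 values were fitted with a four-parameter logistic model.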

[2] = target: T2, BRD4 Bromodomain 2 (BRD4 BD2) (Homo sapiens, UniProt O60885); assay: AlphaScreen binding assay, BRD4 BD2; details: His-tagged BRD4 BD2 100 nM, biotinylated H4 (1-21) K5/8/12/16 tetra-acetylated peptide 100 nM, compounds listed under IC50 range headings
T2 construct: 333-460 were cloned, expressed, and purified to homogeneity
Method in brief: as §1

[3] = test system: acute myelocytic leukemia (AML) cell line MV4-11; assay: Oncology cell growth assay (3-day proliferation, CellTiter-Glo); type: cell-based; details: Homo sapiens, MV4-11 cells, 3000 cells/well, compounds listed under IC50 range headings, read-out: MV411 IC50 (gIC50, inhibition of proliferation)
Method in brief: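 A 3-day proliferation test used MV4-11 cells seeded at 3000 per well with eight compound concentrations (10 μM top, 3-fold dilution) at 37° C in 5% CO2. CellTiter-Glo luminescence defined viable cell signal. A four-parameter logistic curve against DMSO and background wells gave the gIC50.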

Compound	IC50 [1]	IC50 [2]	IC50 ([3]; MV4-11, 72 h)	IC50 ([3]; 72 hours)
COC(=O)N1c2ccc(-c3cnn(C4CCNCC4)c3)c(Oc3ccccc3F)c2CC[C@@H]1C [I-259, (S)-methyl 5-(2-fluorophenoxy)-2-methyl-6-(1-(piperidin-4-yl)-1H-pyrazol-4-yl)-3,4-dihydroquinoline-1(2H)-carboxylate]	100 to 1000 nM	< 50 nM	< 500 nM	–
COC(=O)N1c2ccc(-c3cnn(C4CCNCC4)c3)c(Oc3ccc(F)cc3F)c2CC[C@@H]1C [I-263, (S)-methyl 5-(2,4-difluorophenoxy)-2-methyl-6-(1-(piperidin-4-yl)-1H-pyrazol-4-yl)-3,4-dihydroquinoline-1(2H)-carboxylate]	100 to 1000 nM	< 50 nM	< 500 nM	–
C[C@H]1CCc2c(ccc(-c3cnn(C4CNC4)c3)c2Oc2cccc(F)c2F)N1C(=O)C1CC1 [I-268, (S)-(6-(1-(azetidin-3-yl)-1H-pyrazol-4-yl)-5-(2,3-difluorophenoxy)-2-methyl-3,4-dihydroquinolin-1(2H)-yl)(cyclopropyl)methanone]	100 to 1000 nM	< 50 nM	< 500 nM	–
COC(=O)N1c2ccc(-c3cnn(C4CNC4)c3)c(Oc3cccc(F)c3F)c2CC[C@@H]1C [I-270, (S)-methyl 6-(1-(azetidin-3-yl)-1H-pyrazol-4-yl)-5-(2,3-difluorophenoxy)-2-methyl-3,4-dihydroquinoline-1(2H)-carboxylate]	100 to 1000 nM	< 50 nM	< 500 nM	–
COC(=O)N1c2ccc(-c3cnn(C4CN(C)C4)c3)c(Oc3ccc(F)cc3)c2CC[C@@H]1C [I-282, Methyl (S)-5-(4-fluorophenoxy)-2-methyl-6-(1-(1-methylazetidin-3-yl)-1H-pyrazol-4-yl)-3,4-dihydroquinoline-1(2H)-carboxylate]	100 to 1000 nM	< 50 nM	< 500 nM	–
COC(=O)N1c2ccc(-c3cnn(C4CN(C)C4)c3)c(OC3CCC3)c2CC[C@@H]1C [I-284, Methyl (S)-5-cyclobutoxy-2-methyl-6-(1-(1-methylazetidin-3-yl)-1H-pyrazol-4-yl)-3,4-dihydroquinoline-1(2H)-carboxylate]	1000 to 10000 nM	50 to 500 nM	500 to 1000 nM	–
COC(=O)N1c2ccc(-c3cnn(C4CCN(C)CC4)c3)c(OC3CCC3)c2CC[C@@H]1C [I-285, Methyl (S)-5-cyclobutoxy-2-methyl-6-(1-(1-methylpiperidin-4-yl)-1H-pyrazol-4-yl)-3,4-dihydroquinoline-1(2H)-carboxylate]	100 to 1000 nM	< 50 nM	< 500 nM	–
CCCOc1c(C2CCN(C(=O)OC)CC2)ccc2c1CC[C@H](C)N2C(C)=O [I-357, methyl (S)-4-(1-acetyl-2-methyl-5-propoxy-1,2,3,4-tetrahydroquinolin-6-yl)piperidine-1-carboxylate]	≥ 10000 nM	≥ 500 nM	–	> 1000 nM
CC(=O)N1c2ccc(-c3cnn(C4CCNCC4)c3)c(Nc3ccccc3)c2CC[C@@H]1C [I-359, (S)-1-(2-methyl-5-(phenylamino)-6-(1-(piperidin-4-yl)-1H-pyrazol-4-yl)-3,4-dihydroquinolin-1(2H)-yl)ethan-1-one]	1000 to 10000 nM	50 to 500 nM	–	< 500 nM
COC(=O)N1c2ccc(-c3cnn([C@@H]4CCNC[C@@H]4F)c3)c(OC3CCC3)c2CC[C@@H]1C [I-361, methyl (S)-5-cyclobutoxy-6-(1-((3S,4R)-3-fluoropiperidin-4-yl)-1H-pyrazol-4-yl)-2-methyl-3,4-dihydroquinoline-1(2H)-carboxylate]	< 100 nM	< 50 nM	< 500 nM	–
COC(=O)N1c2ccc(-c3cnn([C@H]4CCNC[C@H]4F)c3)c(OC3CCC3)c2CC[C@@H]1C [I-362, methyl (2S)-5-cyclobutoxy-6-{1-[(3R,4S)-3-fluoropiperidin-4-yl]-1H-pyrazol-4-yl}-2-methyl-1,2,3,4-tetrahydroquinoline-1-carboxylate]	100 to 1000 nM	< 50 nM	< 500 nM	–
COC(=O)N1c2ccc(-c3cnn([C@H]4CCNC[C@@H]4F)c3)c(OC3CCC3)c2CC[C@@H]1C [I-363, methyl (2S)-5-cyclobutoxy-6-{1-[(3S,4S)-3-fluoropiperidin-4-yl]-1H-pyrazol-4-yl}-2-methyl-1,2,3,4-tetrahydroquinoline-1-carboxylate]	100 to 1000 nM	< 50 nM	< 500 nM	–
COC(=O)N1c2ccc(-c3cnn([C@H]4CCNC[C@@H]4F)c3)c(Oc3ccc(F)cc3)c2CC[C@@H]1C [I-364, methyl (2S)-5-(4-fluorophenoxy)-6-{1-[(3S,4S)-3-fluoropiperidin-4-yl]-1H-pyrazol-4-yl}-2-methyl-1,2,3,4-tetrahydroquinoline-1-carboxylate]	100 to 1000 nM	< 50 nM	< 500 nM	–

Second part, led by results:

IC50 [1]	IC50 [2]	IC50 ([3]; MV4-11, 72 h)	Compound	IC50 ([3]; 72 hours)
100 to 1000 nM	< 50 nM	< 500 nM	CC(=O)N1c2ccc(-c3cnn(C4CCNCC4)c3)c(Oc3ccccc3F)c2CC[C@@H]1C [I-258, (S)-1-(5-(2-fluorophenoxy)-2-methyl-6-(1-(piperidin-4-yl)-1H-pyrazol-4-yl)-3,4-dihydroquinolin-1 (2H)-yl)ethanone]	–
100 to 1000 nM	< 50 nM	< 500 nM	COC(=O)N1c2ccc(-c3cnn(C4CCN(C)CC4)c3)c(Oc3ccc(F)cc3)c2CC[C@@H]1C [I-283, Methyl (S)-5-(4-fluorophenoxy)-2-methyl-6-(1-(1-methylpiperidin-4-yl)-1H-pyrazol-4-yl)-3,4-dihydroquinoline-1(2H)-carboxylate]	–
1000 to 10000 nM	50 to 500 nM	< 500 nM	CC(=O)N1c2ccc(-c3cnn(C4CC4)c3)c(Oc3ncccc3C)c2CC[C@@H]1C [I-286, (S)-1-(6-(1-cyclopropyl-1H-pyrazol-4-yl)-2-methyl-5-(3-methylpyridin-2-yloxy)-3,4-dihydroquinolin-1 (2H)-yl)ethanone]	–
100 to 1000 nM	< 50 nM	< 500 nM	CC(=O)N1c2ccc(-c3cnn(C4CC4)c3)c(Oc3ccc(C)cn3)c2CC[C@@H]1C [I-287, (S)-1-(6-(1-cyclopropyl-1H-pyrazol-4-yl)-2-methyl-5-(5-methylpyridin-2-yloxy)-3,4-dihydroquinolin-1(2H)-yl)ethanone]	–
100 to 1000 nM	< 50 nM	< 500 nM	CC(=O)N1c2ccc(-c3cnn(C4CC4)c3)c(Oc3ccc(Cl)cn3)c2CC[C@@H]1C [I-288, (S)-1-(5-(5-chloropyridin-2-yloxy)-6-(1-cyclopropyl-1H-pyrazol-4-yl)-2-methyl-3,4-dihydroquinolin-1(2H)-yl)ethanone]	–
1000 to 10000 nM	50 to 500 nM	500 to 1000 nM	CC(=O)N1c2ccc(-c3cnn(C4CC4)c3)c(Oc3ncc4[nH]cnc4n3)c2CC[C@@H]1C [I-289, (S)-1-(5-(7H-purin-2-yloxy)-6-(1-cyclopropyl-1H-pyrazol-4-yl)-2-methyl-3,4-dihydroquinolin-1(2H)-yl)ethanone]	–
1000 to 10000 nM	< 50 nM	< 500 nM	C/C=C/n1c(Oc2c(-c3cnn(C4CC4)c3)ccc3c2CC[C@H](C)N3C(C)=O)nc2ccccc21 [I-351, (S,E)-1-(6-(1-cyclopropyl-1H-pyrazol-4-yl)-2-methyl-5-(1-(prop-1-enyl)-1H-benzo[d]imidazol-2-yloxy)-3,4-dihydroquinolin-1(2H)-yl)ethanone]	–
≥ 10000 nM	≥ 500 nM	> 1000 nM	CCCOc1c(C2CCNCC2)ccc2c1CC[C@H](C)N2C(C)=O [I-353, (S)-1-(2-methyl-6-(piperidin-4-yl)-5-propoxy-3,4-dihydroquinolin-1(2H)-yl)ethan-1-one]	–
≥ 10000 nM	≥ 500 nM	> 1000 nM	CCCOc1c(C2CCN(C(C)=O)CC2)ccc2c1CC[C@H](C)N2C(C)=O [I-354, (S)-1-(4-(1-acetyl-2-methyl-5-propoxy-1,2,3,4-tetrahydroquinolin-6-yl)piperidin-1-yl)ethan-1-one]	–
≥ 10000 nM	≥ 500 nM	> 1000 nM	CCCOc1c(C2CCN(S(C)(=O)=O)CC2)ccc2c1CC[C@H](C)N2C(C)=O [I-355, (S)-1-(2-methyl-6-(1-(methylsulfonyl)piperidin-4-yl)-5-propoxy-3,4-dihydroquinolin-1 (2H)-yl)ethan-1-one]	–
≥ 10000 nM	50 to 500 nM	> 1000 nM	CCCOc1c(C2CCN(C(=O)NCC)CC2)ccc2c1CC[C@H](C)N2C(C)=O [I-356, (S)-4-(1-acetyl-2-methyl-5-propoxy-1,2,3,4-tetrahydroquinolin-6-yl)-N-ethylpiperidine-1-carboxamide]	–
≥ 10000 nM	≥ 500 nM	> 1000 nM	CCCOc1c(C2CCN(CC)CC2)ccc2c1CC[C@H](C)N2C(C)=O [I-358, (S)-1-(6-(1-ethylpiperidin-4-yl)-2-methyl-5-propoxy-3,4-dihydroquinolin-1(2H)-yl)ethan-1-one]	–

Source: US10611750B2, “Tetrahydroquinoline compositions as bet bromodomain inhibitors” (FORMA Therapeutics, Inc., priority 2013, dated 2020)
